In article PMC3216237 (Environmental science & technology, 2011):

Columns and labels:
rat liver microsomes = format: in vitro ADME; conditions: for Enantiomeric fraction (EF) of OH-PCB metabolite: column not specified, microsomal incubation 50 μM PCB, 30 min
Ryanodine receptor (RyR) = conditions: enantiospecific, only this atropisomer active; cited from earlier work
[1] = liver of rats treated with Aroclor 1254; cited from earlier work

| SMILES | Enantiomeric fraction (EF) of OH-PCB metabolite (rat liver microsomes) | also measured |
| --- | --- | --- |
| Oc1cc(Cl)c(Cl)c(-c2ccc(Cl)cc2Cl)c1Cl [5–91] | 0.54 |  |
| Oc1cc(Cl)c(Cl)c(-c2cc(Cl)ccc2Cl)c1Cl [5–95] | approximately 0.33 |  |
| Oc1cc(Cl)c(Cl)c(-c2cc(Cl)c(Cl)cc2Cl)c1Cl [5–149] | 0.65 |  |
| Oc1cc(Cl)c(Cl)c(-c2ccc(Cl)c(Cl)c2Cl)c1Cl [5′-132] | 0.31 | Enantiomeric fraction, CB column (rat liver microsomes; Cyclosil-B column, analysis conducted at 170 °C, metabolite analysed as MeO-PCB): 0.31 ^a, ^# |
| Clc1ccc(Cl)c(-c2c(Cl)ccc(Cl)c2Cl)c1Cl [(-)-PCB 136, 2,2′,3,3′,6,6′-hexachlorobiphenyl] |  | Sensitization of RyRs (Ryanodine receptor (RyR)): active |
| Clc1ccc(Cl)c(-c2c(Cl)ccc(Cl)c2Cl)c1 [PCB 95] |  | Enantiomeric fraction (EF) in liver [1]: 0.63 |
| Clc1cc(Cl)c(-c2c(Cl)ccc(Cl)c2Cl)cc1Cl [PCB 149] |  | Enantiomeric fraction (EF) in liver [1]: 0.45 |
